Reference: patent US8232283B2, “Raf inhibitors” (Forma Therapeutics, Inc., priority 2008, dated 2012)

Key:
A-431 [B-Raf wildtype] = assay: Anti-proliferative activity, SRB assay, 72 hours; type: cell-based; conditions: Homo sapiens, read-out: CELLULAR IC50 [μM] A-431 [B-Raf wildtype]
Description: (§1) Cells were exposed to the test compounds at various concentrations appropriate to determine an IC50, for 72 hours, and cell proliferation was measured using the SRB assay according to Shekan et al (J Natl Cancer Inst (1990) 82, 1107-112) in order to estimate the IC50 values shown in Table 3.
(§2) Briefly, cells were plated in 96 well dishes 24 hours prior to compound addition at the densities specified in Table 11.1.
(§3) The assay was terminated with the addition of ice cold 10% TCA after growth medium has been removed and the plates were incubated over night at 4° C. The plates were then washed 5 times with water and 100 μl of a Sulforhodamine B solution ([…]) was added to each well. The plates were then incubated for 10 minutes at room temperature before removal of unbound dye by washing with 1% acetic acid. The bound dye was solubilized with 10 mM Trizma base and the absorbance read at OD520.
(§4) Inhibitory activity of the compounds was calculated as % inhibition of cell proliferation compared to cells treated with the solvent (DMSO).

[1] = tested on: HT-29 [B-Raf V600E mutant]; assay: Anti-proliferative activity, SRB assay, 72 hours; type: cell-based; conditions: Homo sapiens, read-out: CELLULAR IC50 [μM] HT-29 [B-Raf V600E mutant]
Description: We observed the surprising finding that compounds of the invention were useful in inhibiting proliferation of HT-29 tumor cells (see Table 3).
as §1, §2, §3, §4

p38 = molecular target: T1, p38 (Homo sapiens, UniProt Q16539); assay: Biochemical inhibition, standard selectivity panel (Proteros); design: dose or concentration left out as unconfirmed
T1 construct: purchased Proteros biostructures GmbH (selectivity panel service)
Description: (§5) For example, selected compound of the present invention were tested in a standard selectivity panel including c-Raf, p38, and 22 other kinases (Proteros biostructures GmbH, Martinsried/Munich, Germany), under conditions of non-disclosure, non-dissemination and non-use.
(§6) In brief, selected compounds of the present invention were tested […] in triplicates against c-Raf, p38 as well as against Ab1, Akt1, Aur A, c-Kit, c-Raf, Cdk1/CycB, Chk1, FGFR3, Flt3, Fyn, IGF1-R, INSR, Lyn, MAPK-ERK1, PAK-4, PKCalpha, Plk1, Ret, ROCK2, RSK 1, c-Src, TIE2, and VEGF-R2.

C-Raf = molecular target: T2, C-Raf (Homo sapiens, UniProt P04049); assay: as above; design: dose or concentration left out as unconfirmed
T2 construct: purchased Proteros biostructures GmbH (selectivity panel service)
Description: as §5, §6

T2 sequence (P04049 whole entry): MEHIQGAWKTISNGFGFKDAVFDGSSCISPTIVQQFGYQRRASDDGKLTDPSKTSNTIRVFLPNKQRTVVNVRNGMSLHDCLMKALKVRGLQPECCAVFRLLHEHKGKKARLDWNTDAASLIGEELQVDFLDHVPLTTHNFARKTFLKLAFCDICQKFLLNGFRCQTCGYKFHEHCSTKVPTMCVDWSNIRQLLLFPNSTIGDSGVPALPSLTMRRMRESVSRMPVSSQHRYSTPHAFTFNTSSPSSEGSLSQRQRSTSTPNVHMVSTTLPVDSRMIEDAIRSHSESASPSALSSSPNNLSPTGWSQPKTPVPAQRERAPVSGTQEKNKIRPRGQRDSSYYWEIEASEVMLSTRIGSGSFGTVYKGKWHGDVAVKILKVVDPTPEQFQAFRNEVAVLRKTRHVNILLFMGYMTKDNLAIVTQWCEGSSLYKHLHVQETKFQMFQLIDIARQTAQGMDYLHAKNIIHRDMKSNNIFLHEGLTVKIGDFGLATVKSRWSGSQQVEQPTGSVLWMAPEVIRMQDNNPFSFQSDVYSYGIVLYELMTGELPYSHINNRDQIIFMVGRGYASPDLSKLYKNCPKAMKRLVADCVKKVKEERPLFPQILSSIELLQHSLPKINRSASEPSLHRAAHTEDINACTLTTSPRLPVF
T1 sequence (Q16539 whole entry): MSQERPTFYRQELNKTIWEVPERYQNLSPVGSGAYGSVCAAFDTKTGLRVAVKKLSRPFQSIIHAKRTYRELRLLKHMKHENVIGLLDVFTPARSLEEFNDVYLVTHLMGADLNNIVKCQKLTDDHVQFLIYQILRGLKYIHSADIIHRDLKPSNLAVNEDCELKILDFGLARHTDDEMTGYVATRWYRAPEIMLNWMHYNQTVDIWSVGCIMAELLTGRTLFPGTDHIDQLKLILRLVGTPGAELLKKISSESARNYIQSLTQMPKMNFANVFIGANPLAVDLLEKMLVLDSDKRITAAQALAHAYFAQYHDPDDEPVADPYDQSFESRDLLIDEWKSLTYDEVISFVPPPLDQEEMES

IC50 (A-431 [B-Raf wildtype]) | IC50 [1] | inhibition (p38) | inhibition (C-Raf) | SMILES
< 10 µM | < 5 µM | > 70% | > 70% | COn1c(=O)c(-c2cc(NC(=O)c3ccc(C(C)(C)C)cc3)ccc2Cl)cc2cnc(NCCN(C)C)nc21 [Compound 37, 4-tert-Butyl-N-{4-chloro-3-[2-(2-dimethylamino-ethylamino)-8-methoxy-7-oxo-7,8-dihydro-pyrido[2,3-d]pyrimidin-6-yl]-phenyl)-benzamide]
< 10 µM | < 5 µM | > 70% | > 70% | COn1c(=O)c(-c2cc(NC(=O)Nc3cc(C(F)(F)F)cc(C(F)(F)F)c3)ccc2Cl)cc2cnc(NCCN(C)C)nc21 [Compound 50, 1-(3,5-Bis-trifluoromethyl-phenyl)-3-{4-chloro-3-[2-(2-dimethylamino-ethylamino)-8-methoxy-7-oxo-7,8-dihydro-pyrido[2,3-d]pyrimidin-6-yl]-phenyl}-urea]
> 10 µM | < 5 µM | > 70% | > 70% | COn1c(=O)c(-c2cc(NC(=O)Nc3cccc(Cl)c3)ccc2Cl)cc2cnc(NCCN(C)C)nc21 [Compound 43, 1-{4-Chloro-3-[2-(2-dimethylamino-ethylamino)-8-methoxy-7-oxo-7,8-dihydro-pyrido[2,3-d]pyrimidin-6-yl]-phenyl}-3-(3-chloro-phenyl)-urea]
< 5 µM | < 5 µM | > 70% | > 70% | COn1c(=O)c(-c2cc(NC(=O)Nc3ccc(C(C)(C)C)cc3)ccc2Cl)cc2cnc(NCCN(C)C)nc21 [Compound 44, 1-(4-tert-Butyl-phenyl)-3-{4-chloro-3-[2-(2-dimethylamino-ethylamino)-8-methoxy-7-oxo-7,8-dihydro-pyrido[2,3-d]pyrimidin-6-yl]-phenyl}-urea]
> 5 µM | < 5 µM | > 70% | > 70% | COn1c(=O)c(-c2cc(NC(=O)Nc3ccc(C)c(C(F)(F)F)c3)ccc2Cl)cc2cnc(NCCN(C)C)nc21 [Compound 47, 1-{4-Chloro-3-[2-(2-dimethylamino-ethylamino)-8-methoxy-7-oxo-7,8-dihydro-pyrido[2,3-d]pyrimidin-6-yl]-phenyl}-3-(4-methyl-3-trifluoromethyl-phenyl)-urea]
> 10 µM | < 10 µM | > 70% | > 70% | COn1c(=O)c(-c2cc(NC(=O)c3ccnc(N4CCOCC4)c3)ccc2Cl)cc2cnc(NCCN(C)C)nc21 [Compound 26, N-{4-Chloro-3-[2-(2-dimethylamino-ethylamino)-8-methoxy-7-oxo-7,8-dihydro-pyrido[2,3-d]pyrimidin-6-yl]-phenyl)-2-morpholin-4-yl-isonicotinamide]
> 10 µM | < 5 µM | > 70% | > 70% | COn1c(=O)c(-c2cc(NC(=O)c3cc(F)cc(C(F)(F)F)c3)ccc2Cl)cc2cnc(NCCN(C)C)nc21 [Compound 28]
< 10 µM | < 5 µM | > 70% | > 70% | COn1c(=O)c(-c2cc(NC(=O)Nc3ccc(C(F)(F)F)cc3)ccc2Cl)cc2cnc(NCCN(C)C)nc21 [Compound 41, 1-{4-Chloro-3-[2-(2-dimethylamino-ethylamino)-8-methoxy-7-oxo-7,8-dihydro-pyrido[2,3-d]pyrimidin-6-yl]-phenyl}-3-(4-trifluoromethyl-phenyl)-urea]
< 10 µM | < 5 µM | > 70% | > 70% | COn1c(=O)c(-c2cc(NC(=O)c3ccc(OCc4cccc(F)c4)c(Cl)c3)ccc2Cl)cc2cnc(NCCN(C)C)nc21 [Compound 32, 3-Chloro-N-{4-chloro-3-[2-(2-dimethylamino-ethylamino)-8-methoxy-7-oxo-7,8-dihydro-pyrido[2,3-d]pyrimidin-6-yl]-phenyl}-4-(3-fluoro-benzyloxy)-benzamide]
> 10 µM | < 10 µM |  |  | COn1c(=O)c(-c2cc(NC(=O)c3cc(C(F)(F)F)ccc3Cl)ccc2Cl)cc2cnc(NCCN(C)C)nc21 [Compound 29, 2-Chloro-N-{4-chloro-3-[2-(2-dimethylamino-ethylamino)-8-methoxy-7-oxo-7,8-dihydro-pyrido[2,3,-d]pyrimidin-6-yl]-phenyl}-5-trifluoromethyl-benzamide]
< 10 µM | < 5 µM |  |  | COn1c(=O)c(-c2cc(NC(=O)c3cc(Cl)nc(N4CCCC4)c3)ccc2Cl)cc2cnc(NCCN(C)C)nc21 [Compound 58, 2-Chloro-N-(4-chloro-3-(2-(2-(dimethylamino)ethylamino)-8-methoxy-7-oxo-7,8-dihydropyrido[2,3-d]pyrimidin-6-yl)phenyl)-6-pyrrolidin-1-yl-isonicotinamide]

Further lines, the compound ahead of its results:

SMILES | IC50 (A-431 [B-Raf wildtype]) | IC50 [1] | inhibition (p38) | inhibition (C-Raf)
CCN(CC)c1cc(C(=O)Nc2ccc(Cl)c(-c3cc4cnc(NCCN(C)C)nc4n(OC)c3=O)c2)cc(Cl)n1 [Compound 8, 2-Chloro-N-(4-chloro-3-(2-(2-(dimethylamino)ethylamino)-8-methoxy-7-oxo-7,8-dihydropyrido[2,3-d]pyrimidin-6-yl)phenyl)-6-diethylamino-isonicotinamide] | < 10 µM | < 5 µM | > 70% | > 70%
COc1ccc(NC(=O)Nc2ccc(Cl)c(-c3cc4cnc(NCCN(C)C)nc4n(OC)c3=O)c2)cc1Cl [Compound 4, 1-{4-Chloro-3-[2-(2-dimethylamino-ethylamino)-8-methoxy-7-oxo-7,8-dihydro-pyrido[2,3-d]pyrimidin-6-yl]-phenyl}-3-(3-chloro-4-methoxy-phenyl)-urea] | > 10 µM | < 10 µM | > 70% | > 70%
COn1c(=O)c(-c2cc(NC(=O)Cc3ccc(Cl)c(C(F)(F)F)c3)ccc2Cl)cc2cnc(NCCN(C)C)nc21 [Compound 16, N-{4-Chloro-3-[2-(2-dimethylamino-ethylamino)-8-methoxy-7-oxo-7,8-dihydro-pyrido[2,3-d]pyrimidin-6-yl]-phenyl)-2-(4-chloro-3-trifluoromethyl-phenyl)-acetamide] | > 10 µM | < 5 µM | > 70% | > 70%
COn1c(=O)c(-c2cc(NC(=O)c3ccc(Cl)c(Cl)c3)ccc2Cl)cc2cnc(NCCN(C)C)nc21 [Compound 10, 3,4-Dichloro-N-{4-chloro-3-[2-(2-dimethylamino-ethylamino)-8-methoxy-7-oxo-7,8-dihydro-pyrido[2,3-d]pyrimidin-6-yl]-phenyl}-benzamide] | > 10 µM | < 5 µM | > 70% | > 70%
COn1c(=O)c(-c2cc(NC(=O)c3cccc(Cl)c3)ccc2Cl)cc2cnc(NCCN(C)C)nc21 [Compound 18, 3-Chloro-N-{4-chloro-3-[2-(2-dimethylamino-ethylamino)-8-methoxy-7-oxo-7,8-dihydro-pyrido[2,3-d]pyrimidin-6-yl]-phenyl}-benzamide] | > 10 µM | < 10 µM | > 70% | > 70%
COn1c(=O)c(-c2cc(NC(=O)c3cccc(C(F)(F)F)c3)ccc2Cl)cc2cnc(NCCN(C)C)nc21 [Compound 24, N-{4-Chloro-3-[2-(2-dimethylamino-ethylamino)-8-methoxy-7-oxo-7,8-dihydro-pyrido[2,3-d]pynmidin-6-yl]-phenyl}-3-trifluoromethyl-benzamide] | > 10 µM | < 5 µM | > 70% | > 70%
COn1c(=O)c(-c2cc(NC(=O)c3ccc(Cl)c(C(F)(F)F)c3)ccc2Cl)cc2cnc(NCCN(C)C)nc21 [Compound 3, 4-Chloro-N-{4-chloro-3-[2-(2-dimethylamino-ethylamino)-8-methoxy-7-oxo-7,8-dihydro-pyrido[2,3-d]pyrimidin-6-yl]-phenyl}-3-trifluoromethyl-benzamide] | > 10 µM | < 5 µM |  | 
COn1c(=O)c(-c2cc(NC(=O)Cc3cccc(C(F)(F)F)c3)ccc2Cl)cc2cnc(NCCN(C)C)nc21 [Compound 25, N-{4-Chloro-3-[2-(2-dimethylamino-ethylamino)-8-methoxy-7-oxo-7,8-dihydro-pyrido[2,3-d]pyrimidin-6-yl]-phenyl}-2-(3-trifluoromethyl-phenyl)-acetamide] | > 10 µM | < 5 µM |  | 
COn1c(=O)c(-c2ccc(NC(=O)c3ccc(Cl)c(C(F)(F)F)c3)cc2Cl)cc2cnc(NCCN(C)C)nc21 [Compound 6, 4-Chloro-N-{3-chloro-4-[2-(2-dimethylamino-ethylamino)-8-methoxy-7-oxo-7,8-dihydro-pyrido[2,3-d]pyrimidin-6-yl]-phenyl}-3-trifluoromethyl-benzamide] | < 10 µM | < 5 µM |  | 
